Assay results from ChEMBL document CHEMBL3885881, “DrugMatrix”.

Organism: Rattus norvegicus
Test: DrugMatrix - Regimen: Daily Repeat
Assay type: toxicity, organism-based, Sprague-Dawley
Set-up: regimen Daily Repeat, gender Male, age 6-8 weeks
Conditions: in vivo, iv, vehicle 100 % SALINE; for ABSOLUTE BASOPHIL / ABSOLUTE EOSINOPHIL / ABSOLUTE LYMPHOCYTE / ABSOLUTE MONOCYTE / ABSOLUTE SEGMENTED NEUTROPHIL / BASOPHIL / EOSINOPHIL / ERYTHROCYTE COUNT / HEMATOCRIT / HEMOGLOBIN / LEUKOCYTE COUNT / LYMPHOCYTE / MEAN CORPUSCULAR HEMOGLOBIN / MEAN CORPUSCULAR HEMOGLOBIN CONCENTRATION / MEAN CORPUSCULAR VOLUME / MONOCYTE / NEUTROPHIL / NUCLEATED RED BLOOD CELLS / PLATELET COUNT: tissue Blood; for ALANINE AMINOTRANSFERASE / ALBUMIN / ALKALINE PHOSPHATASE / ASPARTATE AMINOTRANSFERASE / BLOOD UREA NITROGEN / CARBON DIOXIDE / CHLORIDE / CHOLESTEROL / CREATINE PHOSPHOKINASE / CREATININE / GLUCOSE / LACTATE DEHYDROGENASE / LIPASE / PHOSPHORUS / POTASSIUM / SODIUM / TOTAL BILIRUBIN / TOTAL PROTEIN / URIC ACID: tissue Plasma
[1] = 0 mg/kg, 72 h, dose level Control, time 3 day
[2] = 0 mg/kg, 120 h, dose level Control, time 5 day
[3] = 0.08 mg/kg, 72 h, dose level Low, time 3 day

In the case of `CC[C@]1(O)C[C@@H]2CN(CCc3c([nH]c4ccccc34)[C@@](C(=O)OC)(c3cc4c(cc3OC)N(C)[C@H]3[C@@](O)(C(=O)OC)[C@H](OC(C)=O)[C@]5(CC)C=CCN6CC[C@]43[C@@H]65)C2)C1` [VINBLASTINE], the “ABSOLUTE BASOPHIL” value [1] was 0 CELLS/uL, the “ABSOLUTE EOSINOPHIL” value [1] was 21.67 CELLS/uL and the “ABSOLUTE LYMPHOCYTE” value [1] was 10193.67 CELLS/uL. The “ABSOLUTE MONOCYTE” value [1] was 165.83 CELLS/uL, the “ABSOLUTE SEGMENTED NEUTROPHIL” value [1] was 702.17 CELLS/uL and the BASOPHIL [1] was 0%. The EOSINOPHIL [1] was 0.17%, the “ERYTHROCYTE COUNT” value [1] was 5.39 x10E6/uL and the HEMATOCRIT [1] was 34.62%. For the same molecule, the HEMOGLOBIN [1] was 13.8 G/DL, the “LEUKOCYTE COUNT” value [1] was 11.08 x10E3/uL and the LYMPHOCYTE [1] was 91.83%. The “MEAN CORPUSCULAR HEMOGLOBIN” value [1] was 25.68 pg, the “MEAN CORPUSCULAR HEMOGLOBIN CONCENTRATION” value [1] was 39.9 G/DL and the “MEAN CORPUSCULAR VOLUME” value [1] was 64.37 fL. The MONOCYTE [1] was 1.5%, the NEUTROPHIL [1] was 6.5% and the “NUCLEATED RED BLOOD CELLS” value [1] was 0 /100WBC. For the same molecule, the “PLATELET COUNT” value [1] was 1202.83 x10E3/uL, the “ALANINE AMINOTRANSFERASE” value [1] was 55.5 u/L and the ALBUMIN [1] was 4.22 G/DL. For the same molecule, the “ALKALINE PHOSPHATASE” value [1] was 406.83 u/L, the “ASPARTATE AMINOTRANSFERASE” value [1] was 101.5 u/L and the “BLOOD UREA NITROGEN” value [1] was 13.5 mg/dL. The “CARBON DIOXIDE” value [1] was 30.33 mmol/L, the CHLORIDE [1] was 102.17 MEQ/L and the CHOLESTEROL [1] was 63.67 mg/dL. The “CREATINE PHOSPHOKINASE” value [1] was 732.67 u/L, the CREATININE [1] was 0.2 mg/dL and the GLUCOSE [1] was 157 mg/dL. The “LACTATE DEHYDROGENASE” value [1] was 442.5 u/L, the LIPASE [1] was 10.83 u/L and the PHOSPHORUS [1] was 12.68 mg/dL. The POTASSIUM [1] was 5.67 MEQ/L, the SODIUM [1] was 144 MEQ/L and the “TOTAL BILIRUBIN” value [1] was 0.15 mg/dL. The “TOTAL PROTEIN” value [1] was 6.02 G/DL, the “URIC ACID” value [1] was 1.55 mg/dL and the “ABSOLUTE BASOPHIL” value [2] was 0 CELLS/uL. The “ABSOLUTE EOSINOPHIL” value [2] was 17 CELLS/uL, the “ABSOLUTE LYMPHOCYTE” value [2] was 11849.17 CELLS/uL and the “ABSOLUTE MONOCYTE” value [2] was 69.83 CELLS/uL. For the same molecule, the “ABSOLUTE SEGMENTED NEUTROPHIL” value [2] was 730.67 CELLS/uL, the BASOPHIL [2] was 0% and the EOSINOPHIL [2] was 0.17%. For the same molecule, the “ERYTHROCYTE COUNT” value [2] was 5.93 x10E6/uL, the HEMATOCRIT [2] was 37.42% and the HEMOGLOBIN [2] was 14.4 G/DL. The “LEUKOCYTE COUNT” value [2] was 12.67 x10E3/uL, the LYMPHOCYTE [2] was 93.17% and the “MEAN CORPUSCULAR HEMOGLOBIN” value [2] was 24.32 pg. For the same molecule, the “MEAN CORPUSCULAR HEMOGLOBIN CONCENTRATION” value [2] was 38.5 G/DL, the “MEAN CORPUSCULAR VOLUME” value [2] was 63.08 fL and the MONOCYTE [2] was 0.5%. For the same molecule, the NEUTROPHIL [2] was 6.17%, the “NUCLEATED RED BLOOD CELLS” value [2] was 0 /100WBC and the “PLATELET COUNT” value [2] was 1170.5 x10E3/uL. The “ALANINE AMINOTRANSFERASE” value [2] was 51 u/L, the ALBUMIN [2] was 4.12 G/DL and the “ALKALINE PHOSPHATASE” value [2] was 392.67 u/L. For the same molecule, the “ASPARTATE AMINOTRANSFERASE” value [2] was 81.67 u/L, the “BLOOD UREA NITROGEN” value [2] was 16.17 mg/dL and the “CARBON DIOXIDE” value [2] was 30.67 mmol/L. The CHLORIDE [2] was 100.5 MEQ/L, the CHOLESTEROL [2] was 64.83 mg/dL and the “CREATINE PHOSPHOKINASE” value [2] was 242.67 u/L. For the same molecule, the CREATININE [2] was 0.2 mg/dL, the GLUCOSE [2] was 186.83 mg/dL and the “LACTATE DEHYDROGENASE” value [2] was 188 u/L. It also gave an LIPASE [2] of 10.83 u/L, a PHOSPHORUS [2] of 11.67 mg/dL and a POTASSIUM [2] of 5.51 MEQ/L. For the same molecule, the SODIUM [2] was 142.55 MEQ/L, the “TOTAL BILIRUBIN” value [2] was 0.22 mg/dL and the “TOTAL PROTEIN” value [2] was 6.08 G/DL. The “URIC ACID” value [2] was 1.85 mg/dL, the “ABSOLUTE BASOPHIL” value [3] was 0 CELLS/uL and the “ABSOLUTE EOSINOPHIL” value [3] was 42 CELLS/uL. The “ABSOLUTE LYMPHOCYTE” value [3] was 6254.33 CELLS/uL, the “ABSOLUTE MONOCYTE” value [3] was 40 CELLS/uL and the “ABSOLUTE SEGMENTED NEUTROPHIL” value [3] was 297 CELLS/uL. For the same molecule, the BASOPHIL [3] was 0%, the EOSINOPHIL [3] was 0.67% and the “ERYTHROCYTE COUNT” value [3] was 4.48 x10E6/uL. For the same molecule, the HEMATOCRIT [3] was 28.87%, the HEMOGLOBIN [3] was 11.63 G/DL and the “LEUKOCYTE COUNT” value [3] was 6.63 x10E3/uL. For the same molecule, the LYMPHOCYTE [3] was 94.33%, the “MEAN CORPUSCULAR HEMOGLOBIN” value [3] was 26 pg and the “MEAN CORPUSCULAR HEMOGLOBIN CONCENTRATION” value [3] was 40.33 G/DL. For the same molecule, the “MEAN CORPUSCULAR VOLUME” value [3] was 64.43 fL, the MONOCYTE [3] was 0.67% and the NEUTROPHIL [3] was 4.33%. The “NUCLEATED RED BLOOD CELLS” value [3] was 0 /100WBC, the “PLATELET COUNT” value [3] was 825.33 x10E3/uL and the “ALANINE AMINOTRANSFERASE” value [3] was 47.67 u/L. The ALBUMIN [3] was 4.1 G/DL, the “ALKALINE PHOSPHATASE” value [3] was 395.67 u/L and the “ASPARTATE AMINOTRANSFERASE” value [3] was 99 u/L. The “BLOOD UREA NITROGEN” value [3] was 14 mg/dL, the “CARBON DIOXIDE” value [3] was 32.33 mmol/L and the CHLORIDE [3] was 103.33 MEQ/L. The CHOLESTEROL [3] was 67.33 mg/dL, the “CREATINE PHOSPHOKINASE” value [3] was 526.33 u/L and the CREATININE [3] was 0.17 mg/dL. For the same molecule, the GLUCOSE [3] was 135 mg/dL, the “LACTATE DEHYDROGENASE” value [3] was 170.67 u/L and the LIPASE [3] was 10.33 u/L. For the same molecule, the PHOSPHORUS [3] was 11.9 mg/dL, the POTASSIUM [3] was 6.35 MEQ/L and the SODIUM [3] was 144.8 MEQ/L. The “TOTAL BILIRUBIN” value [3] was 0.17 mg/dL, the “TOTAL PROTEIN” value [3] was 5.6 G/DL and the “URIC ACID” value [3] was 1.13 mg/dL.
